Results as given in patent publication US10604512B2, “3-(1H-indol-2-yl)-1H-indazoles and therapeutic uses thereof” (Samumed, LLC, priority 2015, dated 2020).

What was measured:
Format in all cases: cell-based
[1] = tested on: Wnt activity (Sp5-Luc reporter, TCF/LEF binding sites) in SW480 colon carcinoma cells; experiment: Screening assay for Wnt activity: Sp5-Luc reporter gene assay in stably transduced SW480 colon carcinoma cells; details: Homo sapiens, overnight incubation, 10-point curve from 10 μM
From the text: The screening assay for Wnt activity is described as follows. Reporter cell lines can be generated by stably transducing cancer cell lines (e.g., colon cancer) or primary cells (e.g., IEC-6 intestinal cells) with a lentiviral construct that includes a Wnt-responsive promoter driving expression of the firefly luciferase gene.
SW480 colon carcinoma cells were transduced with a lentiviral vector expressing luciferase with a human Sp5 promoter consisting of a sequence of eight TCF/LEF binding sites. SW480 cells stably expressing the Sp5-Luc reporter gene and a hygromycin resistance gene were selected by treatment with 150 μg/mL of hygromycin for 7 days. These stably transduced SW480 cells were expanded in cell culture and used for all further screening activities. Each compound was dissolved in DMSO as a 10 mM stock and used to prepare compound source plates. Serial dilution (1:3, 10-point dose-response curves starting from 10 μM) and compound transfer was performed using the ECHO 550 (Labcyte, Sunnyvale, Calif.) into 384-well white solid bottom assay plates (Greiner Bio-One) with appropriate DMSO backfill for a final DMSO concentration of 0.1%. For Sp5-Luc reporter gene assays, the cells were plated at 4,000 cells/well in 384-well plates with medium containing 1% fetal bovine serum and incubated overnight at 37° C. and 5% CO2. Following incubation, 20 μl of BrightGlo luminescence reagent (Promega) was added to each well of the 384-well assay plates. The plates were placed on an orbital shaker for 2 min and then luminescence was quantified using the Envision (Perkin Elmer) plate reader. Readings were normalized to DMSO only treated cells, and normalized activities were utilized for EC50 calculations using the dose-response log (inhibitor) vs. response variable slope (four parameters) nonlinear regression feature available in GraphPad Prism 5.0 (or Dotmatics). For EC50 of >10 μM, the percent inhibition at 10 μM is provided.

[2] = tested on: SW480 colon cancer cells; experiment: Cell viability assay (CellTiter-Blue) in SW480 colon cancer cells; details: Homo sapiens, 96 h, four days, CellTiter-Blue
Protocol: Representative compounds were screened using the following assay procedure to assess the effect on cell viability as described below.
Each compound was dissolved in DMSO as a 10 mM stock and used to prepare compound source plates. Serial dilution (1:3, 8-point dose-response curves from 10 μM to 0.0045 μM) and compound transfer was performed using the ECHO 550 (Labcyte, Sunnyvale, Calif.) into 96-well clear bottom, black-walled plates (Corning-Costar).
Approximately 2×10^3 SW480 colon cancer cells were seeded into each well and allowed to incubate in the presence or absence of compound for four days at 37° C./5% CO2. Eight replicates of DMSO-treated cells served as controls and cells treated with compound were performed in duplicate.
After incubation, 20 μL of CellTiter-Blue (Promega) was added to each well allowed to incubate for approximately 3 hours. This reagent was a buffered solution which contains resazurin, metabolically active cells were able to reduce rezarurin (blue) into resorufin (pink) which was highly fluorescent. This measured fluorescence was used as a readout for cell viability.
After incubation, the plates were read at Ex 560 nm Em 590 nm (Cytation 3, BioTek). Dose-response curves were generated and EC50 concentration values were calculated using non-linear regression curve fit in the GraphPad Prism (San Diego, Calif.) or Dotmatics' Studies Software (Bishops Stortford, UK). For EC50 of >10 μM, the percent inhibition at 10 μM is provided.

[3] = tested on: Primary human fibroblasts derived from IPF patients (LL29 cells) treated with TGF-β1; experiment: Inhibition of the fibrotic process: αSMA staining in TGF-β1-treated primary human fibroblasts from IPF patients (LL29 cells); details: Fibroblast, 96 h, % αSMA-positive LL29 cells, TGF-β1 20 ng/mL, 4 days
From the text: Representative compounds were screened using primary human fibroblasts (derived from IPF patients) treated with TGF-β1 to determine their ability to inhibit the fibrotic process.
Primary human fibroblasts derived from IPF patients (LL29 cells) [^1Xiaoqiu Liu, et. al., “Fibrotic Lung Fibroblasts Show Blunted Inhibition by cAMP Due to Deficient cAMP Response Element-Binding Protein Phosphorylation”, Journal of Pharmacology and Experimental Therapeutics (2005), 315(2), 678-687; ^2Watts, K. L., et. al., “RhoA signaling modulates cyclin D1 expression in human lung fibroblasts; implications for idiopathic pulmonary fibrosis”, Respiratory Research (2006), 7(1), 88] were obtained from American Type Culture Collection (ATCC) and expanded in F12 medium supplemented with 15% Fetal Bovine Serum and Penicillin/Streptomycin.
Each compound was dissolved in DMSO as a 10 mM stock and used to prepare compound source plates. Serial dilution (1:2, 11-point dose-response curves from 10 μM to […]) and compound transfer was performed using the ECHO 550 (Labcyte, Sunnyvale, Calif.) into 384-well clear bottom assay plates (Greiner Bio-One) with appropriate DMSO backfill for a final DMSO concentration of 0.1%. LL29 cells are plated at 1,500 cells/well in 80 μL/well F12 medium supplemented with 1% Fetal Bovine Serum. One hour after addition of the cells, TGF-β1 (Peprotech; 20 ng/mL) was added to the plates to induce fibrosis (ref 1 and 2 above). Wells treated with TGF-β1 and containing DMSO were used as controls. Cells were incubated at 37° C. and 5% CO2 for 4 days. Following incubation for 4 days, SYTOX green nucleic acid stain (Life Technologies [Thermo Fisher Scientific]) was added to the wells at a final concentration of 1 μM and incubated at room temperature for 30 min. Cells were then fixed using 4% formaldehyde (Electron Microscopy Sciences), washed 3 times with PBS followed by blocking and permeabilization using 3% Bovine Serum Albumin (BSA; Sigma) and 0.3% Triton X-100 (Sigma) in PBS. Cells were then stained with antibody specific to α-smooth muscle actin (αSMA; Abcam) (ref 1 and 2 above) in 3% Bovine Serum Albumin (BSA; Sigma) and 0.3% Triton X-100 (Sigma) in PBS, and incubated overnight at 4° C. Cells were then washed 3 times with PBS, followed by incubation with Alexa Flor-647 conjugated secondary antibody (Life Technologies [Thermo Fisher Scientific]) and DAPI at room temperature for 1 hour. Cells were then washed 3 times with PBS and plates were sealed for imaging. αSMA staining was imaged by excitation at 630 nm and emission at 665 nm and quantified using the Compartmental Analysis program on the CellInsight CX5 (Thermo Scientific). Dead or apoptotic cells were excluded from analysis based on positive SYTOX green staining. % of total cells positive for αSMA were counted in each well and normalized to the average of 11 wells treated with TGF-β1 on the same plate using Dotmatics' Studies Software. The normalized averages (fold change over untreated) of 3 replicate wells for each compound concentration were used to create dose-responses curves and EC50 values were calculated using non-linear regression curve fit in the Dotmatics' Studies Software. For EC50 of >10 μM, the percent inhibition at 10 μM is provided.

[4] = tested on: IL-6; experiment: Inhibition of IL-6 in LPS-stimulated THP-1 human monocyte cells (HTRF); details: for EC50: IL-6 inhibition, LPS-stimulated THP-1 cells, HTRF
Protocol: Human monocyte cell line (THP-1 cells; Catalog # TIB-202, ATCC, Manassas, Va.) were cultured in Roswell Park Memorial Institute (RPMI) 1640 Medium (Catalog #21870-100, Buffalo, N.Y.) with 1% L-glutamine, 1% HEPES, 1% Sodium Pyruvate, 2% Sodium Bicarbonate supplemented with 100 units/mL penicillin, 50 μg/mL streptomycin, 2-mercaptoethanol (0.05 mM) [basal medium] and 10% fetal bovine serum (Catalog #16140089, Life Technologies, Carlsbad, Calif.) at 37° C. and 5% CO2.
THP-1 cells were cultured in basal media with 1% FBS for 24 hours before the start of the assay. Each compound was dissolved in DMSO as a 10 mM stock and used to prepare compound source plates. Serial dilution (1:3, 10-point dose-response curves starting from 10 μM) and compound transfer was performed using the ECHO 550 (Labcyte, Sunnyvale, Calif.) into 384-well white low volume assay plates (Greiner Bio-One) with appropriate DMSO backfill for a final DMSO concentration of 0.1%. THP-1 cells were plated at 5000 cells/well in the 384-well plates and incubated at 37° C. for 2 h. 500 ng/mL of LPS was added after 2 hours and cells were incubated for another 22 hours at 37° C. Plates were spun in a centrifuge for 1 minute at […] and a mixture of anti-IL6 XL665, and anti-IL6 Cryptate diluted in reconstitution buffer (Cisbio Inc.) was added to each well. Following incubation for 3 hrs at room temperature, Homogeneous Time-Resolved Fluorescence (HTRF) was measured using the Envision (Perkin Elmer) at 665 nm and […]. The ratio of fluorescence at 665 nm to 620 nm was used as a readout for IL6 quantification. All samples were processed in duplicate. Readings were normalized to DMSO treated cells and normalized activities were utilized for EC50 calculations using the dose-response log (inhibitor) vs. response variable slope (four parameters) nonlinear regression feature available in GraphPad Prism 5.0 (or Dotmatics). For EC50 of >10 μM, the percent inhibition at 10 μM is provided.

Compound | EC50 [1] [µM] | EC50 [2] [µM] | EC50 [3] [µM] | EC50 [4] [µM] | inhibition at 10 µM ([4]; THP-1, printed beside >10 μM EC50, top concentration 10 μM, meaning not given, read-out: percentage in parentheses after EC50 >10) [%]
Cc1ccncc1-c1ccc2[nH]nc(-c3cc4c(-c5cccc(F)c5)cccc4[nH]3)c2c1 [Compound 5, 3-(4-(3-Fluorophenyl)-1H-indol-2-yl)-5-(4-methylpyridin-3-yl)-1H-indazole] | 0.3 | 0.563 | 0.737 | 0.834 | 
Fc1cccc(-c2cccc3[nH]c(-c4n[nH]c5ccc(-c6cncc(CN7CCC(F)(F)C7)c6)cc45)cc23)c1 [Compound 26, 5-(5-((3,3-diFluoropyrrolidin-1-yl)methyl)pyridin-3-yl)-3-(4-(3-fluorophenyl)-1H-indol-2-yl)-1H-indazole] | 0.495 | 4.09 | 0.815 | 1.22 | 
O=C(Nc1cncc(-c2ccc3[nH]nc(-c4cc5c(-c6ccc(F)cc6)cccc5[nH]4)c3c2)c1)C1CCC1 [Compound 49, N-(5-(3-(4-(4-Fluorophenyl)-1H-indol-2-yl)-1H-indazol-5-yl)pyridin-3-yl) cyclobutanecarboxamide] | 0.19 | 2.6 | 0.778 | 0.035 | 
CC(C)C(=O)Nc1cncc(-c2ccc3[nH]nc(-c4cc5c(-c6ccccc6F)cccc5[nH]4)c3c2)c1 [Compound 65, N-(5-(3-(4-(2-Fluorophenyl)-1H-indol-2-yl)-1H-indazol-5-yl)pyridin-3-yl) isobutyramide] | 1.17 | 0.981 | 0.305 | 0.105 | 
Fc1ccccc1-c1cccc2[nH]c(-c3n[nH]c4ccc(-c5cncc(CN6CCCCC6)c5)cc34)cc12 [Compound 71, 3-(4-(2-Fluorophenyl)-1H-indol-2-yl)-5-(5-(piperidin-1-ylmethyl)pyridin-3-yl)-1H-indazole] | 1.16 | 2.17 | 2.55 | 3.11 | 
CCCCC(=O)Nc1cncc(-c2ccc3[nH]nc(-c4cc5c(-c6ccccc6F)cccc5[nH]4)c3c2)c1 [Compound 75, N-(5-(3-(4-(2-Fluorophenyl)-1H-indol-2-yl)-1H-indazol-5-yl)pyridin-3-yl) pentanamide] | 1.96 | 4.8 | 1.98 | 1 | 
Fc1ccccc1-c1cccc2[nH]c(-c3n[nH]c4ccc(-c5cncc(CN6CCC(F)(F)C6)c5)cc34)cc12 [Compound 82, 5-(5-((3,3-Difluoropyrrolidin-1-yl)methyl)pyridin-3-yl)-3-(4-(2-fluorophenyl)-1H-indol-2-yl)-1H-indazole] | 2.98 | 5.24 | 2.26 | 4.3 | 
Fc1ccccc1-c1cccc2[nH]c(-c3n[nH]c4ccc(-c5ccccn5)cc34)cc12 [Compound 84, 3-(4-(2-Fluorophenyl)-1H-indol-2-yl)-5-(pyridin-2-yl)-1H-indazole] | 2.88 | 4.21 | 6.74 | 2.38 | 
CC(C)(C)C(=O)Nc1cncc(-c2ccc3[nH]nc(-c4cc5c(-c6cccnc6)cccc5[nH]4)c3c2)c1 [Compound 92, N-(5-(3-(4-(Pyridin-3-yl)-1H-indol-2-yl)-1H-indazol-5-yl)pyridin-3-yl) pivalamide] | 0.14 | 1.32 | 0.612 | 0.153 | 
CC(C)Nc1cncc(-c2ccc3[nH]nc(-c4cc5c(-c6cccnc6)cccc5[nH]4)c3c2)c1 [Compound 96, N-Isopropyl-5-(3-(4-(pyridin-3-yl)-1H-indol-2-yl)-1H-indazol-5-yl)pyridin-3-amine] | 0.1 | 1.14 | 0.162 | 0.163 | 
COc1cncc(-c2ccc3[nH]nc(-c4cc5c(-c6ccc(C)s6)cccc5[nH]4)c3c2)c1 [Compound 768, 5-(5-Methoxypyridin-3-yl)-3-(4-(5-methylthiophen-2-yl)-1H-indol-2-yl)-1H-indazole] | 0.25 | 1.1 |  | > 10 | 49.8
